Data on 32 compounds can be found in US11999739B2, “Antimicrobials methods of making and using the same” (BIOVERSYS AG, priority 2016, dated 2024).

One may read the MIC as the smallest concentration in the dilution series that meets the test's criterion for growth inhibition. Low values mean inhibition by little substance, high ones a need for much substance.

The test system of assay [1] is Escherichia coli strain ATCC25922. In words: Standard microdilution MIC assay, E. coli. The assay is classed as cell-based. Here is the method: (§1) The in vitro activity of the compounds of the present disclosure can be determined. Antimicrobial testing is typically performed to determine the minimum inhibitory concentration (MIC). Minimum inhibitory concentrations (MICs) are determined by the microdilution method in a final volume of 100 μl according to protocols outlined by The Clinical and Laboratory Standards Institute (CLSI). Performance standards for reference strains are assessed within the same experimental design to maintain quality control. See, for example, Clinical Laboratory Standards Institute: Methods for dilution antimicrobial susceptibility tests for bacteria that grow aerobically M7-A8. Approved Standard-Eighth Edition. Wayne, PA: CLSI; December 2008; and Clinical Laboratory Standards Institute: Performance Standards for Antimicrobial Susceptibility Testing M100-S20; Approved Standard-Twentieth Edition. Wayne, PA: CLSI; June 2010.
(§2) The compounds of the present disclosure were tested for antimicrobial activity. The Compounds 1-293 were run against Escherichia coli (E co/i) strain ATCC25922 and against Staphylococcus aureus (S. aureus) 11540 strain using a standard microdilution assay to determine minimum inhibitory concentrations (MICs). […] It will be recognized by one skilled in the art that the compounds can be assessed against other bacterial organisms and that the presentation of data for activity against Escherichia coli and Staphylococcus aureus are illustrative and in no way is intended to limit the scope of the present disclosure. The compounds of the present disclosure can be assayed against a range of other microorganisms depending upon the performance activity desired to be gathered. Furthermore, the “+” and “−” representation and the selection of a cutoff value of 16 micrograms/mL is also illustrative and in no way is intended to limit the scope of the present disclosure.
A general note: In broth dilution the organism is exposed to a series of concentrations in liquid medium.

Assay [2] concerns Staphylococcus aureus (S. aureus) 11540 strain. In words: Standard microdilution MIC assay, S. aureus. The class given is cell-based. Here is the method:
as §1, §2

For `CSC[C@@H](CCNC(=N)CF)NCc1ccc(-n2cc3cc(-c4cc(CCC[C@H](C)N)cc(Cl)c4F)[nH]c3nc2=O)cc1` [Compound 88], the minimal inhibitory concentration (MIC) in assay [1] and in assay [2] was at most 16 µg/mL throughout.
`C=C[C@@H](CCNC(=N)CF)NCc1ccc(-n2cc3cc(-c4cc(CCC[C@@H](N)C5CC5)cc(Cl)c4F)[nH]c3nc2=O)cc1` [Compound 89]: the minimal inhibitory concentration (MIC) in assay [1] and in assay [2] was at most 16 µg/mL throughout.
As for `CC(=N)NCC[C@@H]1CCC[C@@H](c2ccc(-n3cc4cc(-c5cc(CCC(F)(F)CN)cc(Cl)c5F)[nH]c4nc3=O)cc2)N1` [Compound 90], the minimum inhibitory concentration (MIC) in assay [1] and in assay [2] was at most 16 µg/mL throughout.
For `CC(=N)NCC[C@H](CO)NCc1ccc(-n2cc3cc(-c4cc(CCC(F)(F)CN)cc(Cl)c4F)[nH]c3nc2=O)cc1` [Compound 91], the MIC in assay [1] and in assay [2] was at most 16 µg/mL in each case.
Regarding `C=C[C@@H](N)CCCc1cc(Cl)c(F)c(-c2cc3cn(-c4ccc([C@H](C)NCCCNC(C)=N)c(F)c4)c(=O)nc3[nH]2)c1` [Compound 92], the minimum inhibitory concentration (MIC) in assay [1] and in assay [2] was at most 16 µg/mL in each case.
With `CC(=N)NCCCN[C@@H](C)c1ccc(-n2cc3cc(-c4cc(CCC[C@H](C)N)cc(Cl)c4F)[nH]c3nc2=O)cc1F` [Compound 93], the MIC in assay [1] and in assay [2] was at most 16 µg/mL each time.
`C[C@H](N)CCCc1cc(Cl)c(F)c(-c2cc3cn(-c4ccc([C@H](C)NCCCNC(=N)CF)c(F)c4)c(=O)nc3[nH]2)c1` [Compound 94]: the minimum inhibitory concentration (MIC) in assay [1] and in assay [2] was at most 16 µg/mL throughout.
With `CSC[C@@H](CCNC(C)=N)NCc1ccc(-n2cc3cc(-c4cc(CCC[C@H](C)N)cc(Cl)c4F)[nH]c3nc2=O)cc1` [Compound 95], the MIC in assay [1] and in assay [2] was at most 16 µg/mL throughout.
In the case of `CC(=N)NCC[C@H](CO)N[C@@H](C)c1ccc(-n2cc3cc(-c4cc(CCC[C@H](C)N)cc(Cl)c4F)[nH]c3nc2=O)cc1` [Compound 96], the MIC in assay [1] and in assay [2] was at most 16 µg/mL in each case.
For the compound `C[C@H](N)CCCc1cc(Cl)c(F)c(-c2cc3cn(-c4ccc([C@H](C)N[C@@H](CO)CCNC(=N)CF)cc4)c(=O)nc3[nH]2)c1` [Compound 97], the MIC in assay [1] and in assay [2] was at most 16 µg/mL in each case.
With `CC(=N)NCC[C@@H]1COC[C@@H](c2ccc(-n3cc4cc(-c5cc(CCC[C@@H](N)C6CC6)cc(Cl)c5F)[nH]c4nc3=O)cc2)N1` [Compound 98], the minimal inhibitory concentration (MIC) in assay [1] and in assay [2] was at most 16 µg/mL in each case.
Regarding `CC(=N)NCCCN[C@@H](C)c1ccc(-n2cc3cc(-c4cc(CCC[C@@H](N)C5CC5)cc(Cl)c4F)[nH]c3nc2=O)cc1F` [Compound 99], the minimum inhibitory concentration (MIC) in assay [1] and in assay [2] was at most 16 µg/mL in each case.
In the case of `CC(=N)NCC[C@H](CO)NCc1ccc(-n2cc3cc(-c4cc(CCC[C@@H](N)CF)cc(Cl)c4F)[nH]c3nc2=O)cc1` [Compound 100], the minimum inhibitory concentration (MIC) in assay [1] and in assay [2] was at most 16 µg/mL throughout.
For `C=C[C@H](N)CCCc1cc(Cl)c(F)c(-c2cc3cn(-c4ccc(CN[C@@H](C=C)CCNC(C)=N)cc4)c(=O)nc3[nH]2)c1` [Compound 101], the MIC in assay [1] and in assay [2] was at most 16 µg/mL throughout.
Take `CC(=N)NCCCN[C@@H](C)c1ccc(-n2cc3cc(-c4cc(CCC[C@@H](N)C(F)(F)F)cc(Cl)c4F)[nH]c3nc2=O)cc1` [Compound 102]: the minimum inhibitory concentration (MIC) in assay [1] and in assay [2] was at most 16 µg/mL throughout.
Consider `C=C[C@@H](CCNC(C)=N)NCc1ccc(-n2cc3cc(-c4cc(CCC[C@@H](N)CF)cc(Cl)c4F)[nH]c3nc2=O)cc1` [Compound 103], for which the minimal inhibitory concentration (MIC) in assay [1] and in assay [2] was at most 16 µg/mL throughout.
As to `CC(=N)NCC[C@@H]1CCC[C@@H](c2ccc(-n3cc4cc(-c5cc(CCC[C@@H](N)CF)cc(Cl)c5F)[nH]c4nc3=O)cc2)N1` [Compound 104], the MIC in assay [1] and in assay [2] was at most 16 µg/mL throughout.
For the compound `C=C[C@@H](CCNC(C)=N)NCc1ccc(-n2cc3cc(-c4cc(CCC(F)(F)CN)cc(Cl)c4F)[nH]c3nc2=O)cc1` [Compound 105], the minimum inhibitory concentration (MIC) in assay [1] and in assay [2] was at most 16 µg/mL throughout.
As to `CC(=N)NCCCN[C@@H](C)c1ccc(-n2cc3cc(-c4cc(CCC(F)(F)CN)cc(Cl)c4F)[nH]c3nc2=O)cc1F` [Compound 106], the MIC in assay [1] and in assay [2] was at most 16 µg/mL each time.
For `CC(=N)NCCCN[C@@H](C)c1ccc(-n2cc3cc(-c4cc(CCC[C@@H](N)CF)cc(Cl)c4F)[nH]c3nc2=O)cc1F` [Compound 107], the MIC in assay [1] and in assay [2] was at most 16 µg/mL throughout.
For the compound `C[C@H](N)CCCc1cc(Cl)c(F)c(-c2cc3cn(-c4ccc([C@@H]5CCC[C@@H](CCNC(=N)CF)N5C)cc4)c(=O)nc3[nH]2)c1` [Compound 108], the MIC in assay [1] and in assay [2] was at most 16 µg/mL throughout.
Turning to `CC(=N)NCC[C@@H]1CCC[C@@H](c2ccc(-n3cc4cc(-c5cc(CCC[C@H](C)N)cc(Cl)c5F)[nH]c4nc3=O)cc2)N1C` [Compound 109], the MIC in assay [1] and in assay [2] was at most 16 µg/mL each time.
Consider `C=C[C@H](N)CCCc1cc(Cl)c(F)c(-c2cc3cn(-c4ccc([C@H](C)NCCCNC(C)=N)c(F)c4)c(=O)nc3[nH]2)c1` [Compound 111], for which the minimal inhibitory concentration (MIC) in assay [1] and in assay [2] was at most 16 µg/mL throughout.
`CC(=N)NCCCN[C@H](C)c1ccc(-n2cc3cc(-c4cc(CCC[C@H](C)N)cc(Cl)c4F)[nH]c3nc2=O)cc1F` [Compound 112]: the MIC in assay [1] and in assay [2] was at most 16 µg/mL each time.
Turning to `CC(=N)NCCCN[C@@H](C)c1ccc(-n2cc3cc(-c4cc(CCC[C@@H](N)CO)cc(Cl)c4F)[nH]c3nc2=O)cc1F` [Compound 113], the MIC in assay [1] and in assay [2] was at most 16 µg/mL in each case.
As to `C[C@H](N)CCCc1cc(Cl)c(F)c(-c2cc3cn(-c4ccc([C@@H](C)NCCCNC(=N)CF)c(F)c4)c(=O)nc3[nH]2)c1` [Compound 114], the MIC in assay [1] and in assay [2] was at most 16 µg/mL throughout.
Take `CSc1cc(-n2cc3cc(-c4cc(CCC[C@H](C)N)cc(Cl)c4F)[nH]c3nc2=O)ccc1[C@@H]1CCC[C@@H](CCNC(C)=N)N1` [Compound 115]: the MIC in assay [1] and in assay [2] was at most 16 µg/mL throughout.
As for `CSc1cc(-n2cc3cc(-c4cc(CCC[C@@H](N)CO)cc(Cl)c4F)[nH]c3nc2=O)ccc1[C@@H]1CCC[C@@H](CCNC(C)=N)N1` [Compound 116], the minimum inhibitory concentration (MIC) in assay [1] and in assay [2] was at most 16 µg/mL throughout.
On to `CC(=N)NCC[C@@H]1CCC[C@@H](c2ccc(-n3cc4cc(-c5cc(CCC[C@@H](N)CO)cc(Cl)c5F)[nH]c4nc3=O)cc2S(C)(=O)=O)N1` [Compound 118], for which the MIC in assay [1] and in assay [2] was at most 16 µg/mL in each case.
Turning to `CC(=N)NCC[C@@H]1CCC[C@@H](c2ccc(-n3cc4cc(-c5cc(CCC[C@@H](N)CO)cc(Cl)c5F)[nH]c4nc3=O)cc2)N1C` [Compound 121], the MIC in assay [1] and in assay [2] was at most 16 µg/mL each time.
As for `CN1[C@H](CCNC(=N)CF)CCC[C@H]1c1ccc(-n2cc3cc(-c4cc(CCC[C@@H](N)CO)cc(Cl)c4F)[nH]c3nc2=O)cc1` [Compound 122], the MIC in assay [1] and in assay [2] was at most 16 µg/mL in each case.
On to `C=C[C@@H](N)CCCc1cc(Cl)c(F)c(-c2cc3cn(-c4ccc([C@@H]5CCC[C@@H](CCNC(C)=N)N5C)cc4)c(=O)nc3[nH]2)c1` [Compound 124], for which the MIC in assay [1] and in assay [2] was at most 16 µg/mL each time.
